Reference: paper PMC6416464 (Drug Metabolism Letters, 2018)
Read-outs that look alike come from different tables or passages of the source.

Columns and labels:
[1] = Metabolic stability, incubation with human liver microsomes; settings: 1 µM test compound, 0.5 mg/mL protein
[2] = target: T1, CYP2C8 (Homo sapiens, UniProt P10632); test: CYP inhibition in human liver microsomes, CYP2C8; settings: for % Inhibition of Control Activity CYP2C8: NI: No Inhibitin
T1 sequence (P10632 1-490): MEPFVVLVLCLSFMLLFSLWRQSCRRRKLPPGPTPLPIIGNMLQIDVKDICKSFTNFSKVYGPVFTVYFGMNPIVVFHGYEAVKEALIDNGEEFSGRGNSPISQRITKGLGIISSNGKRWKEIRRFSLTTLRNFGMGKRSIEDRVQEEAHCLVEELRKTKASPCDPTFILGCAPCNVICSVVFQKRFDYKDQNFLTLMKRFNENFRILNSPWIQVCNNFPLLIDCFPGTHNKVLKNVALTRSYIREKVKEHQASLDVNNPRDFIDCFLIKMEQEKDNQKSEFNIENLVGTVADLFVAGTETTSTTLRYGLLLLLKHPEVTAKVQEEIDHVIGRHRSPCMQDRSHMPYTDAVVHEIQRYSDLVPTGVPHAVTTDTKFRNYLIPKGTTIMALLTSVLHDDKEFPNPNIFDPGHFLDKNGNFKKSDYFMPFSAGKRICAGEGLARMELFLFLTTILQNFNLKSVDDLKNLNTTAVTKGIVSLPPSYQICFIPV

[3] = target: CYP2D6 (Homo sapiens, UniProt P10635); test: CYP inhibition in human liver microsomes, CYP2D6; settings: HLM, NI: No Inhibitin
Sequence of CYP2D6 (P10635 whole entry): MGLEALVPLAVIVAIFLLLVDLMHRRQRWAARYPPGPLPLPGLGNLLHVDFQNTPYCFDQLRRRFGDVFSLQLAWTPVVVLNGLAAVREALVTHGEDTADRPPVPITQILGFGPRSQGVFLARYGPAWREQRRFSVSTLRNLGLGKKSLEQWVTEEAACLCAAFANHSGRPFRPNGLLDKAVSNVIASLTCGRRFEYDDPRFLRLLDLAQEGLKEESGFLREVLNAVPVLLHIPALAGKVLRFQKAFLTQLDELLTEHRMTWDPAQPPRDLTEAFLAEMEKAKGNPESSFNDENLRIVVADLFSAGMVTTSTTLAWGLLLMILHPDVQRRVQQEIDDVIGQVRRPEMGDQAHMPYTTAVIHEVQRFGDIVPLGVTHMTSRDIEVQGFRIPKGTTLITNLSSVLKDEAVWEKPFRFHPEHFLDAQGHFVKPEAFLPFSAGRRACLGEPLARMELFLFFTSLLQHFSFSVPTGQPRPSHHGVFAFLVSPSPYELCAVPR

[4] = target: T2, rCYP2C8 (Homo sapiens, UniProt P10632); test: Metabolic stability / reaction phenotyping with recombinant human CYP2C8; settings: 1 µM test compound; 100 pmol/mL; 30 min
T2 sequence (P10632 1-490): T1 sequence (P10632 1-490)

[5] = cited from earlier work
[6] = target: T3, CYP1A2 (Homo sapiens, UniProt P05177); test: CYP inhibition in human liver microsomes, CYP1A2; settings: HLM; for % Inhibition of Control Activity CYP1A2: NI: No Inhibitin
T3 sequence (P05177 1-516): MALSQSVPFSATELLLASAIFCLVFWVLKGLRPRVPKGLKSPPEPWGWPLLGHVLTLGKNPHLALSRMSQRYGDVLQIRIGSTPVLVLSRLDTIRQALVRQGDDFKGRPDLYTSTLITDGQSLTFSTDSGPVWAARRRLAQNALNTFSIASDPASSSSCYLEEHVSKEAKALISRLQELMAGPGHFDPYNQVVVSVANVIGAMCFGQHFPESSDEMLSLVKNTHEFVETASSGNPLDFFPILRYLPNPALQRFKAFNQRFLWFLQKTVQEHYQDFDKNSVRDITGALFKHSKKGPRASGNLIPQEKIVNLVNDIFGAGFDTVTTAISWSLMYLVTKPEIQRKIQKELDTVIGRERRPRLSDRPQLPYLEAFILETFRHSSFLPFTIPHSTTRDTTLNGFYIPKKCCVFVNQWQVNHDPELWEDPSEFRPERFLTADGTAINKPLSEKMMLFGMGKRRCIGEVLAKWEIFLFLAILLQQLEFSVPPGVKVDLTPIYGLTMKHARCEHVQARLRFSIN

[7] = target: rCYP2C9 (Homo sapiens, UniProt P11712); test: Metabolic stability / reaction phenotyping with recombinant human CYP2C9
Sequence of rCYP2C9 (P11712 whole entry): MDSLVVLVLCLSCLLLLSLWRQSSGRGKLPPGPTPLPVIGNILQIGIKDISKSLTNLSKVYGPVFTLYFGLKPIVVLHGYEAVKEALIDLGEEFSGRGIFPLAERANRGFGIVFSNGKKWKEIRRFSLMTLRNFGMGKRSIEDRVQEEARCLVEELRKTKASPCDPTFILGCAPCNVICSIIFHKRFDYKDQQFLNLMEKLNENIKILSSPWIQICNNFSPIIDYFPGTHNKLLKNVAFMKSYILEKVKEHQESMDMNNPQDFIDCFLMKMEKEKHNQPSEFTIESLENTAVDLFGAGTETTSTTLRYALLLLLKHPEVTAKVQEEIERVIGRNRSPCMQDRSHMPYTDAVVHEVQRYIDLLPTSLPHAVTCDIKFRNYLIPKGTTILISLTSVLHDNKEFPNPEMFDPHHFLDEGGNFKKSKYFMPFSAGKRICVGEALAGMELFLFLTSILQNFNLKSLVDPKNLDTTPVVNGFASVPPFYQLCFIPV

[8] = target: rCYP2C19 (Homo sapiens, UniProt P33261); test: Metabolic stability / reaction phenotyping with recombinant human CYP2C19
Sequence of rCYP2C19 (P33261 whole entry): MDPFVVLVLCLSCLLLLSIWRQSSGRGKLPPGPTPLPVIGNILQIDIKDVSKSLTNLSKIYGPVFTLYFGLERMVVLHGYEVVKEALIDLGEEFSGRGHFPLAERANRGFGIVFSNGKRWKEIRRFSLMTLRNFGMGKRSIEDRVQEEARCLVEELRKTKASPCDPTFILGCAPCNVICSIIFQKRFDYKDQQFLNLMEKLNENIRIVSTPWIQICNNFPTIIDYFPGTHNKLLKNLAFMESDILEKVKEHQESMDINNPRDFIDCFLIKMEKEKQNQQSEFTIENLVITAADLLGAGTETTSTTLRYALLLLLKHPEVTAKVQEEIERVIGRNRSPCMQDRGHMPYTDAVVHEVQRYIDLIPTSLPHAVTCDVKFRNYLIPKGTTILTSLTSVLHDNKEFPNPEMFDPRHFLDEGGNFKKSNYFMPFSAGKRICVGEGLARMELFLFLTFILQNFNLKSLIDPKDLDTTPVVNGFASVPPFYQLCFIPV

[9] = target: CYP2C9 (Homo sapiens, UniProt P11712); test: CYP inhibition in human liver microsomes, CYP2C9; settings: HLM; for % Inhibition of Control Activity CYP2C9: NI: No Inhibitin
Sequence of CYP2C9 (P11712 whole entry): as the sequence (P11712 whole entry) above

[10] = target: T4, rCYP1A2 (Homo sapiens, UniProt P05177); test: Metabolic stability / reaction phenotyping with recombinant human CYP1A2
T4 sequence (P05177 1-516): T3 sequence (P05177 1-516)

[11] = Metabolic stability, incubation with human liver cytosol; type: in vitro ADME; settings: 1 µM test compound, 1 mg/mL protein
[12] = target: rCYP3A4 (Homo sapiens, UniProt P08684)
Sequence of rCYP3A4 (P08684 whole entry): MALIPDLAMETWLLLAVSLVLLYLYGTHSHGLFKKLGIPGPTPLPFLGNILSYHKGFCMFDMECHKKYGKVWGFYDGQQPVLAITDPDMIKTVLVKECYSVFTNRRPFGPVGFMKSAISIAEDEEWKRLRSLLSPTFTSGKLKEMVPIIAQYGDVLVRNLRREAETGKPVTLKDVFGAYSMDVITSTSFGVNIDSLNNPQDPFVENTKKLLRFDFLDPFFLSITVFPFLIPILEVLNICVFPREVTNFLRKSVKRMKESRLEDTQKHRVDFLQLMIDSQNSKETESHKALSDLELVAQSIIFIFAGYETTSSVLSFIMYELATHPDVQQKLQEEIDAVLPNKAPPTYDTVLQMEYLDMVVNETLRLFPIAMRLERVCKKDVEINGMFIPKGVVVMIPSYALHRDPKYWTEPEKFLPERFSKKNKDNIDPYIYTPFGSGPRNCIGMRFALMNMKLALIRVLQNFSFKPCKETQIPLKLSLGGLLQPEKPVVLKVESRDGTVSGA

[13] = target: T5, CYP3A4 (Homo sapiens, UniProt P08684); settings: microsomes
T5 sequence (P08684 2-503): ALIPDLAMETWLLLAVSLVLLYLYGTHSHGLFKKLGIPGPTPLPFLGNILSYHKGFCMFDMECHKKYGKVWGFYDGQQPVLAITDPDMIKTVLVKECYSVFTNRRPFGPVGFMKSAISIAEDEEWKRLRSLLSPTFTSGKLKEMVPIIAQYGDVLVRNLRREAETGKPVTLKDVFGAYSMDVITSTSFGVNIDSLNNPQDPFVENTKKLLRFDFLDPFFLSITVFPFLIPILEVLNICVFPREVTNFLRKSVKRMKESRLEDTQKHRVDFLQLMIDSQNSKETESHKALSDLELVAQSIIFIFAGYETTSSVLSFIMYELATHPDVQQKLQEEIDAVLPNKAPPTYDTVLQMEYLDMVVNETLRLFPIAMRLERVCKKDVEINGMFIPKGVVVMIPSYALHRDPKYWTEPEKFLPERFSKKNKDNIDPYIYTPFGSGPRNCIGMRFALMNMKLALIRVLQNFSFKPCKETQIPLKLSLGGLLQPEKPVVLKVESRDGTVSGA

[14] = target: rCYP2D6 (Homo sapiens, UniProt P10635); test: Metabolic stability / reaction phenotyping with recombinant human CYP2D6
Sequence of rCYP2D6 (P10635 whole entry): as the sequence (P10635 whole entry) above

[15] = target: CYP2C19 (Homo sapiens, UniProt P33261); test: CYP inhibition in human liver microsomes, CYP2C19; settings: HLM; for % Inhibition of Control Activity CYP2C19: NI: No Inhibitin
Sequence of CYP2C19 (P33261 whole entry): as the sequence (P33261 whole entry) above

[16] = target: T5, CYP3A4; test: in vitro; settings: microsomes, pH 7.4, % Inhibition of Control Activity CYP3A4 (substrate, testosterone)
[17] = with transport inhibitors such as verapamil, quinidine and ivermectin; cited from earlier work
[18] = target: T5, CYP3A4; test: in vitro; settings: microsomes, pH 7.4
[19] = 1 µM test compound, 100 pmol/mL, 30 min
[20] = human, human liver microsomes, pH 7.4, probe paclitaxel

**Q.** What does the source list for triclabendazole sulfoxide?
**A.** % Metabolized at 30 min Incubation with Human Liver Fractions/Enzymes HLM [1]: 18.08%; % Inhibition of Control Activity CYP2C8 ([2]; inhibitor 2 µM, HLM): 11.20%; % Inhibition of Control Activity CYP2C8 ([2]; inhibitor 10 µM, HLM): 53.67%; IC50 ([2]; read-out: IC50 CYP 2C8, HLM): 8.95 µM; % Inhibition of Control Activity CYP2D6 ([3]; inhibitor 2 µM): 1.63%; % Inhibition of Control Activity CYP2D6 ([3]; inhibitor 10 µM): 3.13%; % Metabolized at 30 min Incubation with Human Liver Fractions/Enzymes rCYP2C8 [4]: 0.00%; Cmax ([5]; human patients at therapeutic doses of triclabendazole): 38.6 µM; half-life ([5]; humans): 11 to 12 h; peak concentration ([5]; humans, standard dose of triclabendazole of 10 mg/kg): 38.6 µM; % Inhibition of Control Activity CYP1A2 ([6]; inhibitor 2 µM): 39.42%; % Inhibition of Control Activity CYP1A2 ([6]; inhibitor 10 µM): 69.42%; IC50 ([6]; read-out: IC50 CYP 1A2): 4.19 µM; Predicted Microsomal Clint, CYP2C9 [7]: 57.057 µL/min/mg Protein; % Metabolized at 30 min Incubation with Human Liver Fractions/Enzymes rCYP2C9 [7, 19]: 83.19%; rCYP Clint, CYP2C9 ([7]; human, recombinant enzyme): 0.594 µL/min/pmol; % Contribution of CYP Enzymes (fmCYP) in Metabolism, CYP2C9 ([7]; recombinant enzyme): 82.43%; Predicted Microsomal Clint, CYP2C19 [8]: 6.442 µL/min/mg Protein; % Metabolized at 30 min Incubation with Human Liver Fractions/Enzymes rCYP2C19 [8, 19]: 63.84%; rCYP Clint, CYP2C19 ([8]; human, recombinant enzyme): 0.339 µL/min/pmol; % Contribution of CYP Enzymes (fmCYP) in Metabolism, CYP2C19 ([8]; recombinant enzyme): 9.31%; % Inhibition of Control Activity CYP2C9 ([9]; inhibitor 2 µM): 49.60%; % Inhibition of Control Activity CYP2C9 ([9]; inhibitor 10 µM): 86.62%; IC50 ([9]; read-out: IC50 CYP 2C9): 1.95 µM; Predicted Microsomal Clint, CYP1A2 [10]: 3.968 µL/min/mg Protein; % Metabolized at 30 min Incubation with Human Liver Fractions/Enzymes rCYP1A2 [10, 19]: 20.46%; rCYP Clint, CYP1A2 ([10]; human, recombinant enzyme): 0.076 µL/min/pmol; % Contribution of CYP Enzymes (fmCYP) in Metabolism, CYP1A2 ([10]; recombinant enzyme): 5.73%; % Metabolized at 30 min Incubation with Human Liver Fractions/Enzymes Cytosol [11]: 0.00%; Predicted Microsomal Clint, CYP3A4 [12]: 1.626 µL/min/mg Protein; % Metabolized at 30 min Incubation with Human Liver Fractions/Enzymes rCYP3A4 [12, 19]: 4.30%; rCYP Clint, CYP3A4 ([12]; human, recombinant enzyme): 0.015 µL/min/pmol; % Contribution of CYP Enzymes (fmCYP) in Metabolism, CYP3A4 ([12]; recombinant enzyme): 2.35%; % Inhibition of Control Activity CYP3A4 (substrate, testosterone) ([13]; 2 µM): 0.18%; % Inhibition of Control Activity CYP3A4 (substrate, testosterone) ([13]; 10 µM): 14.43%; Predicted Microsomal Clint, CYP2D6 [14]: 0.125 µL/min/mg Protein; % Metabolized at 30 min Incubation with Human Liver Fractions/Enzymes rCYP2D6 [14, 19]: 3.68%; rCYP Clint, CYP2D6 ([14]; human, recombinant enzyme): 0.012 µL/min/pmol; % Contribution of CYP Enzymes (fmCYP) in Metabolism, CYP2D6 ([14]; recombinant enzyme): 0.18%; % Inhibition of Control Activity CYP2C19 ([15]; inhibitor 2 µM): 84.33%; % Inhibition of Control Activity CYP2C19 ([15]; inhibitor 10 µM): 88.87%; IC50 ([15]; read-out: IC50 CYP 2C19): 0.22 µM

**Q.** With `CCC[S+]([O-])c1ccc2[nH]c(NC(=O)OC)nc2c1` (centres unmarked) [Albendazole sulfoxide, albendazole sulfoxide] as the compound, how does the “% Metabolized at 30 min Incubation with Human Liver Fractions/Enzymes HLM” value [1] read?
**A.** Its value is 4.23%.

**Q.** What about the inhibition at 2 µM [16] of the same compound?
**A.** Its inhibition at 2 µM is 2.48%.

**Q.** And the inhibition at 2 µM [2, 20]?
**A.** The inhibition at 2 µM was under 0%.

**Q.** And the inhibition at 10 µM [2, 20]?
**A.** The inhibition at 10 µM was under 0%.

**Q.** And the “increase of AUC” value [17]?
**A.** The value was over 50%.

**Q.** What about the “% Inhibition of Control Activity CYP1A2” value ([6]; inhibitor 10 µM, 10 µM) of the same compound?
**A.** Its value is 22.20%.

**Q.** What about the “% Inhibition of Control Activity CYP2C9” value ([9]; inhibitor 10 µM, 10 µM) of the same compound?
**A.** Its value is 9.49%.

**Q.** What about the “% Metabolized at 30 min Incubation with Human Liver Fractions/Enzymes Cytosol” value [11] of the same compound?
**A.** Its value is 0.20%.

**Q.** And the inhibition at 2 µM [18]?
**A.** The inhibition at 2 µM was under 0%.

**Q.** What about the inhibition at 10 µM [18] of the same compound?
**A.** Its inhibition at 10 µM is under 0%.

**Q.** And the “% Inhibition of Control Activity CYP3A4 (substrate, testosterone)” value ([13]; human, 10 µM, pH 7.4)?
**A.** Its value is 4.82%.
